Results: US9504675B2, “Alpha-ketoheterocycles and methods of making and using” (The Scripps Research Institute, priority 2011, dated 2016)

Target: T1, recombinant rat FAAH (rFAAH) (Rattus norvegicus, UniProt P97612)
T1 construct: The truncated rat FAAH (rFAAH) was expressed in E. coli and purified; made in house; host or cells: Escherichia coli
T1 sequence (P97612 30-579 limits assumed): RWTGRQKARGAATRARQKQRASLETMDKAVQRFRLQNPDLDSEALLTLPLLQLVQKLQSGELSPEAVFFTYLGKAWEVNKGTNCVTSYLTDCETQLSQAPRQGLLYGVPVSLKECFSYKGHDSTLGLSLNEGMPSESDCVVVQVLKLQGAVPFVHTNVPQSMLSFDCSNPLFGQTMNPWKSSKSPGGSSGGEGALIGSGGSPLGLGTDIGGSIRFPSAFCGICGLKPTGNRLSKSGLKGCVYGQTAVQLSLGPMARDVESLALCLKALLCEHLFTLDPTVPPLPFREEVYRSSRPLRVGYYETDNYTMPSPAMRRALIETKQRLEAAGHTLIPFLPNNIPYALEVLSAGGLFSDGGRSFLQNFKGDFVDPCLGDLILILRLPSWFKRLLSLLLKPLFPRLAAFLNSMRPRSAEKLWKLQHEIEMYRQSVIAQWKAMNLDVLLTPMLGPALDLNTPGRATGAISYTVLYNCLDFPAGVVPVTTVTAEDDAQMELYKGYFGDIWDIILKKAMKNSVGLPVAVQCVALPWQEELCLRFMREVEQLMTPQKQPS
Experiment: Enzyme assay: inhibition of purified recombinant rat FAAH, 14C-oleamide hydrolysis, Ki by Dixon plot
Assay type: biochemical
Conditions: Ki
Experimental: Enzyme assays were performed at 20-23° C. with purified recombinant rat FAAH expressed in Escherichia coli or with solubilized COS-7 membrane extracts from cells transiently transfected with human FAAH cDNA (where specifically indicated) in a buffer of 125 mM Tris/1 mM EDTA/0.2% glycerol/0.02% Triton X-100/0.4 mM Hepes, pH 9.0.
^14C-labeled oleamide was prepared from ^14C-labeled oleic acid. The truncated rat FAAH (rFAAH) was expressed in E. coli and purified. The purified recombinant rFAAH was used in the inhibition assays unless otherwise indicated. The full-length human FAAH (hFAAH) was expressed in COS-7 cells as described, and the lysate of hFAAH-transfected COS-7 cells was used in the inhibition assays where explicitly indicated.
The inhibition assays were performed as follows. […] The enzyme reaction was terminated by transferring 20 μL of the reaction mixture to 500 μL of 0.1 N HCl at three different time points. The ^14C-labeled oleamide (substrate) and oleic acid (product) were extracted with EtOAc and analyzed by TLC as detailed. The Ki of the inhibitor was calculated using a Dixon plot as described (standard deviations are provided in the Supporting Information tables).

[1] = Table 3, (R)-enantiomer, indane C2 acyl side chain
[2] = Table 4, (R)-enantiomer, additional FAAH inhibitors
[3] = Table 2, (S)-enantiomer, 1,2,3,4-tetrahydronaphthalene C2 acyl side chain
[4] = Table 3, tentatively assigned (S)-enantiomer, indane C2 acyl side chain

Row | Structure (SMILES) | Ki [3] | other results
1 | COC(=O)c1cccc(-c2cnc(C(=O)C3Cc4ccc(OCc5ccccc5)cc4C3)o2)n1 (single isomer, unassigned) [(R)-32, Methyl 6-(2-(5-(Benzyloxy)indane-2-carbonyl)oxazol-5-yl)picolinate] |  | Ki [1]: 130 nM
2 | O=C(O)c1cccc(-c2cnc(C(=O)C3Cc4ccc(OCc5ccccc5)cc4C3)o2)n1 (single isomer, unassigned) [(R)-33, 6-(2-(5-(Benzyloxy)indane-2-carbonyl)oxazol-5-yl)picolinic acid] |  | Ki [1]: 660 nM
3 | O=C(c1nnco1)C1CCc2cc(Oc3ccccc3)ccc2C1 (single isomer, unassigned) [(R)-34, (1,3,4-Oxadlazol-2-yl)(6-phenoxy-1,2,3,4-tetrahydronaphthalen-2-yl)methanone] |  | Ki [2]: 1.4 nM
4 | COC(=O)c1nnc(C(=O)C2CCc3cc(Oc4ccccc4)ccc3C2)o1 (single isomer, unassigned) [(R)-35, Methyl 5-(6-Phenoxy-1,2,3,4-tetrahydronaphthalene-2-carbonyl)-[1,3,4]oxadiazole-2-carboxylate] |  | Ki [2]: 1.6 nM
5 | O=C(c1nnc(-c2ccccn2)o1)C1CCc2cc(Oc3ccccc3)ccc2C1 (single isomer, unassigned) [(R)-36, (6-Phenoxy-1,2,3,4-tetrahydronaphthalen-2-yl)(5-(pyridin-2-yl)-1,3,4-oxadiazol-2-yl)methanone] |  | Ki [2]: 6.3 nM
6 | O=C(c1ncco1)C1CCc2ccccc2C1 (single isomer, unassigned) [(R)-37, Oxazol-2-yl(1,2,3,4-tetrahydronaphthalen-2-yl)methanone] |  | Ki [2]: 12000 nM
7 | O=C(c1ncc(-c2ccccn2)o1)C1CCc2ccccc2C1 (single isomer, unassigned) [(R)-38, (5-(Pyridin-2-yl)oxazol-2-yl)(1,2,3,4-tetrahydronaphthalen-2-yl)methanone] |  | Ki [2]: 3200 nM
8 | O=C(c1ncco1)C1CCc2cc(-c3ccccc3)ccc2C1 (single isomer, unassigned) [(S)-3, Oxazol-2-yl(6-phenyl-1,2,3,4-tetrahydronaphthalen-2-yl)methanone] | 57 nM | 
9 | COC(=O)c1cnc(C(=O)C2CCc3cc(-c4ccccc4)ccc3C2)o1 (single isomer, unassigned) [(S)-4, Methyl 2-(6-Phenyl-1,2,3,4-tetrahydronaphthalene-2-carbonyl)oxazole-5-carboxylate] | 55 nM | 
10 | N#Cc1cnc(C(=O)C2CCc3cc(-c4ccccc4)ccc3C2)o1 (single isomer, unassigned) [(S)-5, 2-(6-Phenyl-1,2,3,4-tetrahydronaphthalene-2-carbonyl)oxazole-5-carbonitrile] | 3.4 nM | 
11 | O=C(c1ncc(-c2ccccn2)o1)C1CCc2cc(-c3ccccc3)ccc2C1 (single isomer, unassigned) [(S)-6, (6-Phenyl-1,2,4-tetrahydronaphthalen-2-yl)(5-(pyridin-2-yl)oxazol-2-yl)methanone] | 7.2 nM | 
12 | COC(=O)c1cccc(-c2cnc(C(=O)C3CCc4cc(-c5ccccc5)ccc4C3)o2)n1 (single isomer, unassigned) [(S)-7, Methyl 6-(2-(6-Phenyl-1,2,3,4-tetrahydronaphthalene-2-carbonyl)oxazol-5-yl)picolinate] | 27 nM | 
13 | O=C(O)c1cccc(-c2cnc(C(=O)C3CCc4cc(-c5ccccc5)ccc4C3)o2)n1 (single isomer, unassigned) [(S)-8, 6-(2-(6-Phenyl-1,2,3,4-tetrahydronaphthalene-2-carbonyl)oxazol-5-yl)picolinic acid] | 39 nM | 
14 | O=C(c1ncco1)C1CCc2cc(Oc3ccccc3)ccc2C1 (single isomer, unassigned) [(S)-9, Oxazol-2-yl(6-phenoxy-1,2,3,4-tetrahydronaphthalen-2-yl)methanone] | 2.2 nM | 
15 | COC(=O)c1cnc(C(=O)C2CCc3cc(Oc4ccccc4)ccc3C2)o1 (single isomer, unassigned) [(S)-10, Methyl 2-(6-Phenoxy-1,2,3,4-tetrahydronaphthalene-2-carbonyl)oxazole-5-carboxylate] | 5.4 nM | 
16 | N#Cc1cnc(C(=O)C2CCc3cc(Oc4ccccc4)ccc3C2)o1 (single isomer, unassigned) [(S)-11, 2-(6-Phenoxy-1,2,3,4-tetrahydronaphthalene-2-carbonyl)oxazole-5-carbonitrile] | 1.3 nM | 

Row | Structure (SMILES) | Ki [3] | other results
17 | O=C(c1ncc(-c2ccccn2)o1)C1CCc2cc(Oc3ccccc3)ccc2C1 (single isomer, unassigned) [(S)-12, (6-Phenoxy-1,2,3,4-tetrahydronaphthalen-2-yl)(5-(pyridin-2-yl)oxazol-2-yl)methanone] | 4.4 nM | 
18 | COC(=O)c1cccc(-c2cnc(C(=O)C3CCc4cc(Oc5ccccc5)ccc4C3)o2)n1 (single isomer, unassigned) [(S)-13, Methyl 6-(2-(6-Phenoxy-1,2,3,4-tetrahydronaphthalene-2-carbonyl)oxazol-5-yl)picolinate] | 2.2 nM | 
19 | O=C(O)c1cccc(-c2cnc(C(=O)C3CCc4cc(Oc5ccccc5)ccc4C3)o2)n1 (single isomer, unassigned) [(S)-14, 6-(2-(6-Phenoxy-1,2,3,4-tetrahydronaphthalene-2-carbonyl)oxazol-5-yl)picolinic acid] | 25 nM | 
20 | O=C(c1ncco1)C1CCc2cc(OCc3ccccc3)ccc2C1 (single isomer, unassigned) [(S)-15, (6-(Benzyloxy)-1,2,3,4-tetrahydronaphthalen-2-yl)(oxazol-2-yl)methanone] | 6.1 nM | 
21 | COC(=O)c1cnc(C(=O)C2CCc3cc(OCc4ccccc4)ccc3C2)o1 (single isomer, unassigned) [(S)-16, Methyl 2-(6-(Benzyloxy)-1,2,3,4-tetrahydronaphthalene-2-carbonyl)oxazole-5-carboxylate] | 2.9 nM | 
22 | N#Cc1cnc(C(=O)C2CCc3cc(OCc4ccccc4)ccc3C2)o1 (single isomer, unassigned) [(S)-17, 2-(6-(Benzyloxy)-1,2,3,4-tetrahydronaphthalene-2-carbonyl)oxazole-5-carbonitrile] | 3.2 nM | 
23 | O=C(c1ncc(-c2ccccn2)o1)C1CCc2cc(OCc3ccccc3)ccc2C1 (single isomer, unassigned) [(S)-18, (6-(Benzyloxy)-1,2,3,4-tetrahydronaphthalen-2-yl)(5-(pyridin-2-yl)oxazol-2-yl)methanone] | 3.2 nM | 
24 | COC(=O)c1cccc(-c2cnc(C(=O)C3CCc4cc(OCc5ccccc5)ccc4C3)o2)n1 (single isomer, unassigned) [(S)-19, Methyl 6-(2-(6-(Benzyloxy)-1,2,3,4-tetrahydronaphthalene-2-carbonyl)oxazol-5-yl)picolinate] | 18 nM | 
25 | O=C(O)c1cccc(-c2cnc(C(=O)C3CCc4cc(OCc5ccccc5)ccc4C3)o2)n1 (single isomer, unassigned) [(S)-20, 6-(2-(6-(Benzyloxy)-1,2,3,4-tetrahydronaphthalene-2-carbonyl)oxazol-5-yl)picolinic acid] | 34 nM | 
26 | O=C(c1ncco1)C1Cc2ccc(-c3ccccc3)cc2C1 (single isomer, unassigned) [(S)-22, Oxazol-2-yl(5-phenylindan-2-yl)methanone] |  | Ki [4]: 27 nM
27 | O=C(c1ncc(-c2ccccn2)o1)C1Cc2ccc(-c3ccccc3)cc2C1 (single isomer, unassigned) [(S)-23, (5-Phenylindan-2-yl)-(5-(pyridin-2-yl)oxazol-2-yl)methanone] |  | Ki [4]: 1.9 nM
28 | O=C(c1ncco1)C1Cc2ccc(Oc3ccccc3)cc2C1 (single isomer, unassigned) [(S)-26, Oxazol-2-yl(5-phenoxyindan-2-yl)methanone] |  | Ki [4]: 10 nM
29 | O=C(c1ncc(-c2ccccn2)o1)C1Cc2ccc(Oc3ccccc3)cc2C1 (single isomer, unassigned) [(S)-27, (5-Phenoxyindan-2-yl)(5-(pyridin-2-yl)oxazol-2-yl)methanone] |  | Ki [4]: 2.1 nM
30 | COC(=O)c1cccc(-c2cnc(C(=O)C3Cc4ccc(Oc5ccccc5)cc4C3)o2)n1 (single isomer, unassigned) [(S)-28] |  | Ki [4]: 98 nM
31 | O=C(O)c1cccc(-c2cnc(C(=O)C3Cc4ccc(Oc5ccccc5)cc4C3)o2)n1 (single isomer, unassigned) [(S)-29, 6-(2-(5-Phenoxyindane-2-carbonyl)oxazol-5-yl)picolinic acid] |  | Ki [4]: 71 nM
32 | O=C(c1ncc(-c2ccccn2)o1)C1Cc2ccc(OCc3ccccc3)cc2C1 (single isomer, unassigned) [(S)-31, (5-(Benzyloxy)indan-2-yl)(5-(pyridin-2-yl)oxazol-2-yl)methanone] |  | Ki [4]: 1.4 nM
